Measured values: US20260167659A1, “STING AGONISTS” (LIGACHEM BIOSCIENCES INC., priority 2022, published 2026)

Tests used:
hSTING-WT (R232) = target: T1, hSTING-WT (R232) (Homo sapiens, UniProt Q86WV6, H232R); assay: STING activation, THP1-Dual IRF3 reporter assay, hSTING-R232 cells; assay type: cell-based; settings: IRF3 luciferase reporter, 24 hours, read-out: STING activity using hSTING-R232 cells EC50
T1 construct: host or cells: THP1-Dual cells (human monocytes) with knocked-in hSTING R232
Experimental: (§1) To assess potency of STING agonist compounds described herein, THP1-Dual™ Cells (NF—KB-SEAP and IRF-Lucia luciferase reporter monocytes, InvivoGen) were used. The reporter cells were knocked-in either of hSTING-WT (R232, #thpd-r232), HAQ variant (#thpd-nfis), or H232 variant (#thpd-h232). All cells were cultured at 37° C. in a humidified incubator at 5% CO2 and maintained in RPMI 1640 medium (Gibco, #22400097) supplemented with 10% heat-inactivated FBS and 1×Pen-Strep (Gibco, #15140122). To measure STING agonist-mediated IRF3 activity, the cells (9.0×10^4 cells per well) were seeded in a flat-bottomed 96-well plate. The next day, the cells were treated with compounds in a serial dilution for 24 hours. Subsequently, 20 μL of the cell culture supernatant and 50 μL of the QUANTI-Luc™ reagent (InvivoGen, #rep-qlc) were mixed in a 96-well white plate and then, luciferase activity was measured using an EnVision Xcite multilabel reader. The data were analyzed using Prism8 software (4-parameter).
(§2) The potency of STING agonist compounds was evaluated by the activation of Type I Interferon pathway using THP-1 IRF3 reporter assay.

human STING = target: T2, human STING (Homo sapiens, UniProt Q86WV6, H232R); assay: Direct STING binding, HUMAN STING WT BINDING KIT (Cisbio); settings: direct binding to human STING WT protein in vitro; read-out: Binding potency EC50
T2 construct: purchased Cisbio 64BDSTGPEG
Source text: Additionally, for analysis of direct binding potency of STING agonist compounds described herein to human STING, HUMAN STING WT BINDING KIT (Cisbio, #64BDSTGPEG) was used according to the manufacture's instruction.

[1] = Normal cell cytotoxicity in PBMCs, CellTiter-Glo; assay type: cell-based; settings: human, read-out: In vitro cell cytotoxicity in PBMCs CC50
Experimental: PBMCs were also purchased from […]™ (#700025.2). The cells (8.0×10^4 cells per well) were seeded in a flat-bottomed 96-well plate in RPMI 1640 medium (Gibco, #22400097) with 10% heat-inactivated FBS and 1× Antibiotic-Antimycotic (Gibco, #15240062) and rested for 24 hours at 37° C. […] After 72 hours, the cell viability was measured using CellTiter-Glo Luminescent Cell Viability Assay (Promega, #G7573) according to the manufacture's instruction. The signal was detected using an EnVision Xcite multilabel reader and data were analyzed using GraphPad Prism 8 software.
To verify the effect of the STING agonist compounds in normal cell cytotoxicity, the PBMCs were treated with the STING agonist compounds for 3 days and measured the percentage of cell death.

hSTING H232 variant = target: T3, hSTING H232 variant (Homo sapiens, UniProt Q86WV6); assay: STING activation, THP1-Dual IRF3 reporter assay, hSTING-H232 cells; assay type: cell-based; settings: IRF3 luciferase reporter, 24 hours, read-out: STING activity using hSTING-H232 cells, H232 EC50
T3 construct: host or cells: THP1-Dual cells (human monocytes) with knocked-in hSTING H232
Experimental: as §1, §2

hSTING HAQ variant = target: T4, hSTING HAQ variant (Homo sapiens, UniProt Q86WV6, G230A/H232R/R293Q/R71H); assay: STING activation, THP1-Dual IRF3 reporter assay, hSTING-HAQ cells; assay type: cell-based; settings: IRF3 luciferase reporter, 24 hours, read-out: STING activity using hSTING-HAQ cells, HAQ EC50
T4 construct: host or cells: THP1-Dual cells (human monocytes)
Experimental: as §1, §2

T1 sequence (Q86WV6 whole entry H232R): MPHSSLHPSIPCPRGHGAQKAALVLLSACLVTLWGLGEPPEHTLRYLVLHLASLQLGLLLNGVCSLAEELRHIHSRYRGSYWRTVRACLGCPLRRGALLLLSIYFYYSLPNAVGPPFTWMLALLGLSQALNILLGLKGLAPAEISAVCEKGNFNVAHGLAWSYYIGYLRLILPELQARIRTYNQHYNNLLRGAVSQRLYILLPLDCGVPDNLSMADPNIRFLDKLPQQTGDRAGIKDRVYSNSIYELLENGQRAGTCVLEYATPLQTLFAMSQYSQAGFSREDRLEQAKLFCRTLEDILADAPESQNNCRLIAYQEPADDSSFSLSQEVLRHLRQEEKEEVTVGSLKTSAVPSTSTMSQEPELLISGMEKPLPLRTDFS
T2 sequence (Q86WV6 whole entry H232R): as above
T4 sequence (Q86WV6 whole entry R71H/G230A/H232R/R293Q): as the sequence (Q86WV6 whole entry H232R) above, with R71H, G230A, R293Q counted along it

Structure (SMILES)	EC50 (hSTING-WT (R232)) [nM]	EC50 (human STING) [nM]	other results
CCn1nc(C)cc1C(=O)Nc1nc2cc(C(N)=O)cc(OC)c2n1C/C=C/Cn1c(NC(=O)c2cc(C)nn2CC)nc2cc(C(N)=O)cc(OC/C=C/Cn3cc(NCCC(=O)OC)cn3)c21 [Compound 174]	44.4	–	–
CCn1nc(C)cc1C(=O)Nc1nc2cc(C(N)=O)cc(OC)c2n1C/C=C/Cn1c(NC(=O)c2cc(C)nn2CC)nc2cc(C(N)=O)cc(OC/C=C/Cn3cc(NC(=O)OCc4ccc(O[C@@H]5O[C@H](C(=O)O)[C@@H](O)[C@H](O)[C@H]5O)c(C(=O)NCCOC)c4)cn3)c21 [Compound 272]	18.8	–	–
CCn1nc(C)cc1C(=O)Nc1nc2cc(C(N)=O)cc(OC)c2n1C/C=C/Cn1c(NC(=O)c2cc(C)nn2CC)nc2cc(C(N)=O)cc(OC/C=C/Cn3cc(NC(=O)OCc4ccc(O[C@@H]5O[C@H](C(=O)O)[C@@H](O)[C@H](O)[C@H]5O)c(C(=O)NCCOCCOCCOCCOCCOCC(=O)O)c4)cn3)c21 [Compound 285]	33.5	0.3	–
CCn1nc(C)cc1C(=O)Nc1nc2cc(C(N)=O)cc(OC/C=C/Cn3cc(NC(=O)OCc4ccc(O[C@@H]5O[C@H](C(=O)O)[C@@H](O)[C@H](O)[C@H]5O)c(C(=O)NCCOCCOCCO)c4)cn3)c2n1C/C=C/Cn1c(NC(=O)c2cc(C)nn2CC)nc2cc(C(N)=O)cc(OCCCC(=O)O)c21 [Compound 316]	88.2	–	CC50 at 72 h [1]: 207 nM; EC50 (hSTING H232 variant): 251 nM; EC50 (hSTING HAQ variant): 400 nM
CCn1nc(C)cc1C(=O)Nc1nc2cc(C(N)=O)cc(OC)c2n1C/C=C/Cn1c(NC(=O)c2cc(C)nn2CC)nc2cc(C(N)=O)cc(OC/C=C/Cn3cc(NC(=O)OCc4ccc(O[C@@H]5O[C@H](C(=O)O)[C@@H](O)[C@H](O)[C@H]5O)c(C(=O)NCCC(=O)NC(CC(=O)O)CC(=O)O)c4)cn3)c21 [Compound 328]	80.7	0.04	–
CCn1nc(C)cc1C(=O)Nc1nc2cc(C(N)=O)cc(OC)c2n1C/C=C/Cn1c(NC(=O)c2cc(C)nn2CC)nc2cc(C(N)=O)cc(OC/C=C/CN(CCCNC(=O)OCc3ccc(O[C@@H]4O[C@H](C(=O)O)[C@@H](O)[C@H](O)[C@H]4O)c(C(=O)NCCOCCOCCN4CCOCC4)c3)C(=N)N)c21 [Compound 332]	574	–	–
CCn1nc(C)cc1C(=O)Nc1nc2cc(C(N)=O)cc(OC)c2n1C/C=C/Cn1c(NC(=O)c2cc(C)nn2CC)nc2cc(C(N)=O)cc(OC/C=C/Cn3cc(NC(=O)OCc4ccc(O[C@@H]5O[C@H](C(=O)O)[C@@H](O)[C@H](O)[C@H]5O)c(C(=O)NCCCn5cc(CCOP(=O)(O)O)nn5)c4)cn3)c21 [Compound 357]	50.4	0.14	–
CCn1nc(C)cc1C(=O)Nc1nc2cc(C(N)=O)cc(OC/C=C/Cn3cc(NC(=O)OCc4ccc(O[C@@H]5O[C@H](C(=O)O)[C@@H](O)[C@H](O)[C@H]5O)c(C(=O)NCCOCCOCCN(C)C)c4)cn3)c2n1C/C=C/Cn1c(NC(=O)c2cc(C)nn2CC)nc2cc(C(N)=O)cc(OC/C=C/Cn3cc(NC(=O)OCc4ccc(O[C@@H]5O[C@H](C(=O)O)[C@@H](O)[C@H](O)[C@H]5O)c(C(=O)NCCOCCOCCN(C)C)c4)cn3)c21 [Compound 359]	463	0.17	–
CCn1nc(C)cc1C(=O)Nc1nc2cc(C(N)=O)cc(OC)c2n1C/C=C/Cn1c(NC(=O)c2cc(C)nn2CC)nc2cc(C(N)=O)cc(OC/C=C/Cn3cc(NC(=O)OCc4ccc(O[C@@H]5O[C@H](C(=O)O)[C@@H](O)[C@H](O)[C@H]5O)c(C(=O)NCCOCCOCCN)c4)cn3)c21 [Compound 372]	54.6	–	–
CCn1nc(C)cc1C(=O)Nc1nc2cc(C(N)=O)cc(OC/C=C/Cn3cc(NC(=O)OCc4ccc(OC5O[C@H](C(=O)O)[C@@H](O)[C@H](O)[C@H]5O)c(C(=O)NCCOCCOCCN(C)C)c4)cn3)c2n1C/C=C/Cn1c(NC(=O)c2cc(C)nn2CC)nc2cc(C(N)=O)cc(OCCCS(C)(=O)=NC(=O)OCc3ccc(O[C@@H]4O[C@H](C(=O)O)[C@@H](O)[C@H](O)[C@H]4O)c(C(=O)NCCOCCOCCN(C)C)c3)c21 (stereo partly drawn) [Compound 376]	287	–	–
CCn1nc(C)cc1C(=O)Nc1nc2cc(C(N)=O)cc(OC)c2n1C/C=C/Cn1c(NC(=O)c2cc(C)nn2CC)nc2cc(C(N)=O)cc(OC/C=C/CN3CCN(C(=O)OCc4ccc(O[C@@H]5O[C@H](C(=O)O)[C@@H](O)[C@H](O)[C@H]5O)c(C(=O)NCCOC)c4)CC3=O)c21 [Compound 417]	24.6	–	–
CCn1nc(C)cc1C(=O)Nc1nc2cc(C(N)=O)cc(OC)c2n1C/C=C/Cn1c(NC(=O)c2cc(C)nn2CC)nc2cc(C(N)=O)cc(OC/C=C/CN3CCCN3C(=O)OCc3ccc(O[C@@H]4O[C@H](C(=O)O)[C@@H](O)[C@H](O)[C@H]4O)c(C(=O)NCCOC)c3)c21 [Compound 419]	38.1	–	–

Molecules with a lower EC50 (hSTING-WT (R232)), results first:

EC50 (hSTING-WT (R232)) [nM]	EC50 (human STING) [nM]	Structure (SMILES)	other results
4.46	–	CCn1nc(C)cc1C(=O)Nc1nc2cc(C(N)=O)cc(OC)c2n1C/C=C/Cn1c(NC(=O)c2cc(C)nn2CC)nc2cc(C(N)=O)cc(OCCc3ccc(NC(=O)OCc4ccc(O[C@@H]5O[C@H](C(=O)O)[C@@H](O)[C@H](O)[C@H]5O)c(C(=O)NCCOC)c4)cc3)c21 [Compound 239]	–
6.78	–	CCn1nc(C)cc1C(=O)Nc1nc2cc(C(N)=O)cc(OC)c2n1C/C=C/Cn1c(NC(=O)c2cc(C)nn2CC)nc2cc(C(N)=O)cc(OCCc3ccc(NC(=O)OCc4ccc(O[C@@H]5O[C@H](C(=O)O)[C@@H](O)[C@H](O)[C@H]5O)c(C(=O)NCCOCCOCCN(C)C)c4)cc3)c21 [Compound 262]	–
8.86	0.26	CCn1nc(C)cc1C(=O)Nc1nc2cc(C(N)=O)cc(OC)c2n1C/C=C/Cn1c(NC(=O)c2cc(C)nn2CC)nc2cc(C(N)=O)cc(OC/C=C/Cn3cc(NC(=O)OCc4ccc(O[C@@H]5O[C@H](C(=O)O)[C@@H](O)[C@H](O)[C@H]5O)c(C(=O)NCCOCCOCCN5CCOCC5)c4)cn3)c21 [Compound 291]	–
7.2	0.27	CCn1nc(C)cc1C(=O)Nc1nc2cc(C(N)=O)cc(OC)c2n1C/C=C/Cn1c(NC(=O)c2cc(C)nn2CC)nc2cc(C(N)=O)cc(OC/C=C/Cn3cc(NC(=O)OCc4ccc(O[C@@H]5O[C@H](C(=O)O)[C@@H](O)[C@H](O)[C@H]5O)c(C(=O)O)c4)cn3)c21 [Compound 299]	–
5.36	0.18	CCn1nc(C)cc1C(=O)Nc1nc2cc(C(N)=O)cc(OC)c2n1C/C=C/Cn1c(NC(=O)c2cc(C)nn2CC)nc2cc(C(N)=O)cc(OC/C=C/Cn3cc(NC(=O)OCc4ccc(O[C@@H]5O[C@H](CO)[C@H](O)[C@H](O)[C@H]5O)c(C(=O)NCCOCCOCCO)c4)cn3)c21 [Compound 307]	–
3.65	0.04	CCn1nc(C)cc1C(=O)Nc1nc2cc(C(N)=O)cc(OC)c2n1C/C=C/Cn1c(NC(=O)c2cc(C)nn2CC)nc2cc(C(N)=O)cc(OC/C=C/Cn3cc(NC(=O)OCc4ccc(O[C@@H]5O[C@H](CO)[C@H](O)[C@H](O)[C@H]5O)c(C(=O)NCCOC)c4)cn3)c21 [Compound 320]	–
16.2	0.19	CCn1nc(C)cc1C(=O)Nc1nc2cc(C(N)=O)cc(OC)c2n1C/C=C/Cn1c(NC(=O)c2cc(C)nn2CC)nc2cc(C(N)=O)cc(OC/C=C/Cn3cc(NC(=O)OCc4ccc(O[C@@H]5O[C@H](CO)[C@H](O)[C@H](O)[C@H]5O)c(C(=O)NCCOCCOCCN(C)C)c4)cn3)c21 [Compound 337]	–
10.5	–	C#CCNC(=O)c1cc(COC(=O)Nc2cnn(C/C=C/COc3cc(C(N)=O)cc4nc(NC(=O)c5cc(C)nn5CC)n(C/C=C/Cn5c(NC(=O)c6cc(C)nn6CC)nc6cc(C(N)=O)cc(OC)c65)c34)c2)ccc1O[C@@H]1O[C@H](C(=O)OC)[C@@H](OC(C)=O)[C@H](OC(C)=O)[C@H]1OC(C)=O [Compound 347]	–
7.67	–	CCn1nc(C)cc1C(=O)Nc1nc2cc(C(N)=O)cc(OC)c2n1C/C=C/Cn1c(NC(=O)c2cc(C)nn2CC)nc2cc(C(N)=O)cc(OC/C=C/Cn3cc(NC(=O)OCc4ccc(O[C@@H]5O[C@H](C(=O)O)[C@@H](O)[C@H](O)[C@H]5O)c(C(=O)NCCOCCOCCN=[N+]=[N-])c4)cn3)c21 [Compound 367]	–
